Broadly, the IC50 is the concentration that inhibits the measured activity by half.

Some results are limits rather than exact numbers.

The first test deals with T1, human capsaicin receptor (Homo sapiens, UniProt Q8NER1).
T1 construct: pBK-CMV expression construct encoding the full length human capsaicin receptor; expressed in transfected cells
T1 sequence (Q8NER1 whole entry): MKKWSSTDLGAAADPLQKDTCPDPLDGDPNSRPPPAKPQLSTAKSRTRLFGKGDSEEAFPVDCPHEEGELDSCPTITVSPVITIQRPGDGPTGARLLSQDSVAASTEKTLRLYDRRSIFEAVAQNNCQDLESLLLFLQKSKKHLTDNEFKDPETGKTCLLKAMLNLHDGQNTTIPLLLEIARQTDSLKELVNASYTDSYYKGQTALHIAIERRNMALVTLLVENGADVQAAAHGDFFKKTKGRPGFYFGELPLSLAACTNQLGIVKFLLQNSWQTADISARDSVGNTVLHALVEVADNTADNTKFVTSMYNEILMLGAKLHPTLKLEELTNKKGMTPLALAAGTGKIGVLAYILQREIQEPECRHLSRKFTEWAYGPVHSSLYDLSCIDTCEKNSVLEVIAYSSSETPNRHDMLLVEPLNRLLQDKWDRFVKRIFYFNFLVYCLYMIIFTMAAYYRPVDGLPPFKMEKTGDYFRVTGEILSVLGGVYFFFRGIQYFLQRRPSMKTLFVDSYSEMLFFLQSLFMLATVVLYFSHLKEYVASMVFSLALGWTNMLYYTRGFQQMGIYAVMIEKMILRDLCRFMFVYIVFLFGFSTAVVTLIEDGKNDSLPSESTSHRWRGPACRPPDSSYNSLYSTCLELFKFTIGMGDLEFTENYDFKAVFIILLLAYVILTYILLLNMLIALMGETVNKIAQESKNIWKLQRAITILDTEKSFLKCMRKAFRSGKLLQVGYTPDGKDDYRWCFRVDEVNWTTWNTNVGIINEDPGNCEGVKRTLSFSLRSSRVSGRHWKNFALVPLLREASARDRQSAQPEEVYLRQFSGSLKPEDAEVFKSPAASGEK
The experiment in a line: Calcium mobilization assay, determination of antagonist activity (Example 6). In kind it is cell-based. The note with it: Table II; IC50 determined as described in Example 6. As for the experimental part:
A cDNA encoding full length human capsaicin receptor (SEQ ID NO: 1, 2 or 3 of U.S. Pat. No. 6,482,611) was subcloned in the plasmid pBK-CMV (Stratagene, La Jolla, Calif.) for recombinant expression in mammalian cells.
Human embryonic kidney (HEK293) cells were transfected with the pBK-CMV expression construct encoding the full length human capsaicin receptor using standard methods. The transfected cells were selected for two weeks in media containing G418 (400 μg/ml) to obtain a pool of stably transfected cells. Independent clones were isolated from this pool by limiting dilution to obtain clonal stable cell lines for use in subsequent experiments.
This Example illustrates representative calcium mobilization assays for use in evaluating test compounds for agonist and antagonist activity.
Cells transfected with expression plasmids (as described in Example 4) and thereby expressing human capsaicin receptor are seeded and grown to 70-90% confluency in FALCON black-walled, clear-bottomed 96-well plates (#3904, BECTON-DICKINSON, Franklin Lakes, N.J.). The culture medium is emptied from the 96 well plates and FLUO-3 AM calcium sensitive dye (Molecular Probes, Eugene, Oreg.) is added to each well (dye solution: 1 mg FLUO-3 AM, 440 μL DMSO and 440 pi 20% pluronic acid in DMSO, diluted 1:250 in Krebs-Ringer HEPES (KRH) buffer (25 mM HEPES, 5 mM KCl, 0.96 mM NaH2PO4, 1 mM MgSO4, 2 mM CaCl2, 5 mM glucose, 1 mM probenecid, pH 7.4), 50 μl diluted solution per well). Plates are covered with aluminum foil and incubated at 37° C. for 1-2 hours in an environment containing 5% CO2. After the incubation, the dye is emptied from the plates, and the cells are washed once with KRH buffer, and resuspended in KRH buffer.
To measure the ability of a test compound to agonize or antagonize a calcium mobilization response in cells expressing capsaicin receptors to capsaicin or other vanilloid agonist, the EC50 of the agonist capsaicin is first determined. An additional 20 μl of KRH buffer and 1 μl DMSO is added to each well of cells, prepared as described above. 100 μl capsaicin in KRH buffer is automatically transferred by the FLIPR instrument to each well. Capsaicin-induced calcium mobilization is monitored using either FLUOROSKAN ASCENT (Labsystems; Franklin, Mass.) or FLIPR (fluorometric imaging plate reader system; Molecular Devices, Sunnyvale, Calif.) instruments. Data obtained between 30 and 60 seconds after agonist application are used to generate an 8-point concentration response curve, with final capsaicin concentrations of 1 nM to 3 μM. KALEIDAGRAPH software (Synergy Software, Reading, Pa.) is used to fit the data to the equation: y=a*(1/(1+(b/x)^c)) to determine the 50% excitatory concentration (EC50) for the response. In this equation, y is the maximum fluorescence signal, x is the concentration of the agonist or antagonist (in this case, capsaicin), a is the Emax, b corresponds to the EC50 value and c is the Hill coefficient. Determination of Agonist Activity
Test compounds are dissolved in DMSO, diluted in 20 μl KRH buffer so that the final concentration of test compounds in the assay well is between 1 μM and 5 μM, and added to cells prepared as described above. The 96 well plates containing prepared cells and test compounds are incubated in the dark, at room temperature for 0.5 to 6 hours. It is important that the incubation not continue beyond 6 hours. Just prior to determining the fluorescence response, 100 pi capsaicin in KRH buffer at twice the EC50 concentration determined as described above is automatically added by the FLIPR instrument to each well of the 96 well plate for a final sample volume of 200 μl and a final capsaicin concentration equal to the EC50. The final concentration of test compounds in the assay wells is between 1 μM and 5 μM. […]
On the technique in general: A change in cytosolic calcium serves as a functional read-out for many receptors and channels.
In the case of `COCCCOc1nc(-c2ccc(F)c(Cl)c2)cc(N2CCN(c3ncccc3C(F)(F)F)CC2)n1` [Example 555, 4-(3-chloro-4-fluorophenyl)-2-(3-methoxypropoxy)-6-{4-[3-(trifluoromethyl)pyridin-2-yl]piperazin-1-yl}pyrimidine], the IC50 is at most 1 µM.

In the case of `NC1CCN(c2nc(-c3ccc(F)c(Cl)c3)cc(N3CCN(c4ncccc4C(F)(F)F)CC3)n2)C1` (stereo not shown) [Example 568, 1-(4-(3-chloro-4-fluorophenyl)-6-{4-[3-(trifluoromethyl)pyridin-2-yl]piperazin-1-yl}pyrimidin-2-yl)pyrrolidin-3-amine], the IC50 was at most 1 µM.

Still in this test, the particulars now being: Table II; IC50 determined as described in Example 6 (antagonist activity, calcium mobilization).
Turning to `Cc1ccc(-c2cc(N3CCN(c4ncccc4Cl)C[C@H]3C)nc(N3CCOCC3)n2)cc1F` [Example 980, 4-[4-[(2R)-4-(3-chloropyridin-2-yl)-2-methylpiperazin-1-yl]-6-(3-fluoro-4-methylphenyl)pyrimidin-2-yl]morpholine], the IC50 was at most 1 µM.

Take `C[C@@H]1CN(c2ncccc2F)CCN1c1cc(-c2ccc(F)c(F)c2)nc(N2CCOC[C@@H]2C)n1` [Example 1006, (3S)-4-{4-(3,4-difluorophenyl)-6-[(2R)-4-(3-fluoropyridin-2-yl)-2-methylpiperazin-1-yl]pyrimidin-2-yl}-3-methylmorpholine]: the half-inhibitory concentration (IC50) is at most 1 µM.

The test is the same for the next values; noted with them: Table II; determined as described in Example 6 (antagonist activity); "*" = 1 micromolar or less.
For the compound `CC(=O)c1ccc(-c2cc(N3CCN(c4ncccc4Cl)C[C@H]3C)nc(N3CCOCC3)n2)cc1` [Example 858, 1-(4-{6-[(2R)-4-(3-chloropyridin-2-yl)-2-methylpiperazin-1-yl]-2-morpholin-4-ylpyrimidin-4-yl}phenyl)ethanone], the IC50 is at most 1 µM. On the same count and under the same terms, the value for `C[C@@H]1CN(c2nccnc2Cl)CCN1c1cc(-c2ccc(F)c(Cl)c2)nc(N2CCOCC2)n1` [Example 910, 4-{4-(3-chloro-4-fluorophenyl)-6-[(2R)-4-(3-chloropyrazin-2-yl)-2-methylpiperazin-1-yl]pyrimidin-2-yl}morpholine] was at most 1 µM. The same measure, in the same setting: the value for `CCCN1CCN(c2nc(-c3ccc(F)c(C)c3)cc(N3CCN(c4ncccc4C(F)(F)F)C[C@H]3C)n2)CC1` [Example 787, 4-(4-fluoro-3-methylphenyl)-6-{(2R)-2-methyl-4-[3-(trifluoromethyl)pyridin-2-yl]piperazin-1-yl}-2-(4-propylpiperazin-1-yl)pyrimidine] was at most 1 µM; that for `C[C@H]1CN(c2ncccc2Cl)CCN1c1cc(-c2ccc(F)c(Cl)c2)nc(Cl)n1` [Example 944, 2-chloro-4-(3-chloro-4-fluorophenyl)-6-[(2S)-4-(3-chloropyridin-2-yl)-2-methylpiperazin-1-yl]pyrimidine] was at most 1 µM. The same measure, in the same setting: the result for `C[C@H]1CN(c2nccnc2Cl)CCN1c1cc(-c2ccc(Cl)c(F)c2)nc(N2CCCC2)n1` [Example 961, 4-(4-chloro-3-fluorophenyl)-6-[(2S)-4-(3-chloropyrazin-2-yl)-2-methylpiperazin-1-yl]-2-pyrrolidin-1-ylpyrimidine] reads at most 1 µM. Turning to `O[C@H]1CCN(c2nc(-c3ccc(F)c(Cl)c3)cc(N3CCN(c4ncccc4C(F)(F)F)CC3)n2)C1` [Example 772, (3S)-1-(4-(3-chloro-4-fluorophenyl)-6-{4-[3-(trifluoromethyl)pyridin-2-yl]piperazin-1-yl}pyrimidin-2-yl)pyrrolidin-3-oI], the half-maximal inhibitory concentration (IC50) is at most 1 µM. `C[C@H]1CN(c2ncccc2Cl)CCN1c1cc(-c2ccc(F)c(F)c2)nc(N2CCOCC2)n1` [Example 923, 4-[4-[(2S)-4-(3-chloropyridin-2-yl)-2-methylpiperazin-1-yl]-6-(3,4-difluorophenyl)pyrimidin-2-yl]morpholine]: the IC50 is at most 1 µM. Still for that read-out and setting: the value for `Cc1cc(-c2cc(N3CCN(c4nccnc4Cl)C[C@H]3C)nc(N3CCCC3C)n2)ccc1F` (stereo in doubt) [Example 915, 4-[4-(3-chloropyrazin-2-yl)-2-methylpiperazin-1-yl]-6-(4-fluoro-3-methylphenyl)-2-(2-methylpyrrolidin-1-yl)pyrimidine] was at most 1 µM; that for `C[C@@H]1CCCN1c1cc(-c2ccc(F)c(F)c2)nc(N2CCN(c3nccnc3Cl)C[C@@H]2C)n1` [Example 950, 2-[(2S)-4-(3-chloropyrazin-2-yl)-2-methylpiperazin-1-yl]-4-(3,4-difluorophenyl)-6-[(2R)-2-methylpyrrolidin-1-yl]pyrimidine] was at most 1 µM; that for `C[C@@H]1CN(c2nccnc2Cl)CCN1c1cc(-c2ccc(F)cc2)nc(N2CCC[C@H]2C)n1` [Example 927, 4-[(2R)-4-(3-chloropyrazin-2-yl)-2-methylpiperazin-1-yl]-6-(4-fluorophenyl)-2-[(2R)-2-methylpyrrolidin-1-yl]pyrimidine] was at most 1 µM.

Staying with this test, now noted: Table II; determined as described in Example 6; class symbol.
As to `Cc1cccc(-c2nc(N3CCOCC3)nc(N3CCN(c4ccccn4)CC3)n2)c1C` [Example 271, 2-(2,3-dimethylphenyl)-4-morpholin-4-yl-6-(4-pyridin-2-ylpiperazin-1-yl)-1,3,5-triazine], the IC50 is at most 1 µM.

Still in this test, the particulars now being: determined as described in Example 6 (calcium mobilization, antagonist activity); Table II.
For the compound `Cc1cncc(-c2cc(N3CCN(c4ncccc4C(F)(F)F)CC3)nc(N3CCOCC3)n2)c1` [Example 631, 4-(4-(5-methylpyridin-3-yl)-6-{4-[3-(trifluoromethyl)pyridin-2-yl]piperazin-1-yl}pyrimidin-2-yl)morpholine], the IC50 was at most 1 µM. Same read-out and setting: the value for `C[C@@H]1CN(c2ncccc2Cl)CCN1c1cc(-c2ccc(F)c(Cl)c2)nc(S(=O)(=O)Cc2ccccc2)n1` [Example 723, 2-(benzylsulfonyl)-4-(3-chloro-4-fluorophenyl)-6-[(2R)-4-(3-chloropyridin-2-yl)-2-methylpiperazin-1-yl]pyrimidine] was at most 1 µM; that for `C[C@@H]1CN(c2ncccc2Cl)CCN1c1cc(-c2ccc(F)c(Cl)c2)nc(N2CCOC(C)(C)C2)n1` [Example 742, 4-{4-(3-chloro-4-fluorophenyl)-6-[(2R)-4-(3-chloropyridin-2-yl)-2-methylpiperazin-1-yl]pyrimidin-2-yl}-2,2-dimethylmorpholine] was at most 1 µM; that for `Cc1cc(-c2cc(N3CCN(c4ncccc4C(F)(F)F)C[C@H]3C)nc(N3C(C)CCC3C)n2)ccc1F` (stereo partly drawn) [Example 755, 2-(2,5-dimethylpyrrolidin-1-yl)-4-(4-fluoro-3-methylphenyl)-6-{(2R)-2-methyl-4-[3-(trifluoromethyl)pyridin-2-yl]piperazin-1-yl}pyrimidine] was at most 1 µM. On the same count and under the same terms, the result for `CC(CO)N(C)c1nc(-c2ccc(F)c(Cl)c2)cc(N2CCN(c3ncccc3C(F)(F)F)CC2)n1` (stereo not shown) [Example 758, 2-[(4-(3-chloro-4-fluorophenyl)-6-{4-[3-(trifluoromethyl)pyridin-2-yl]piperazin-1-yl}pyrimidin-2-yl)(methyl)amino]propan-1-ol] reads at most 1 µM; that for `CCN(CC)c1nc(-c2cccc(Cl)c2)cc(N2CCN(c3ncccc3C(F)(F)F)CC2)n1` [Example 597, 4-(3-chlorophenyl)-N,N-diethyl-6-{4-[3-(trifluoromethyl)pyridin-2-yl]piperazin-1-yl}pyrimidin-2-amine], at most 1 µM.

Take `Cc1cn(-c2nc(-c3cccc(Cl)c3)cc(N3CCN(c4ncccc4C(F)(F)F)CC3)n2)c(C)n1` [Example 637, 4-(3-chlorophenyl)-2-(2,4-dimethyl-1H-imidazol-1-yl)-6-(4-[3-(trifluoromethyl)pyridin-2-yl]piperazin-1-yl}pyrimidine]: the IC50 was at most 1 µM.

The values above are taken from patent publication US7566712B2, “Biaryl piperazinyl-pyridine analogues” (Neurogen Corporation, priority 2003, dated 2009).
